Measured values from patent publication US4482553A, “Benzothienylglycyl cephalosporin derivatives” (priority 1983, dated 1984).
≈ marks a conversion by molar mass, not a printed value. Like-named read-outs stand apart in the source and are kept apart here.

Assays:
Format in all cases: cell-based
Staph. epi [1] = experiment: Expanded Spectrum MIC (Table II), Staph. epi
Excerpt: (§1) The antibacterial activity of several compounds of the invention has been determined in standard in vitro agar dilution assays against a variety of gram positive and gram negative microorganisms. The following Tables present typical minimum inhibitory concentrations (MIC's) in μg/ml for several compounds of the invention when evaluated against the indicated microorganisms. MIC's for several known compounds are also presented for comparison.

Strep. D = experiment: standard in vitro agar dilution MIC (Table I), Strep. D
H. influ. [2] = experiment: standard in vitro agar dilution MIC (Table I), H. influ.
Excerpt: as §1

Strep. PN = experiment: standard in vitro agar dilution MIC (Table I), Strep. PN; details: strain PARK, read-out: MIC
Staph. epi [3] = experiment: standard in vitro agar dilution MIC (Table I), Staph. epi; details: Table I, agar dilution, read-out: MIC
Strep. A = experiment: standard in vitro agar dilution MIC (Table I), Strep. A; details: Table I, agar dilution, strain C203; read-out: MIC
Klebsiella = experiment: standard in vitro agar dilution MIC (Table I), Klebsiella
Staph. aureus [4] = experiment: standard in vitro agar dilution MIC (Table I), Staph. aureus; details: Staphylococcus aureus
Staph. aureus [5] = experiment: Expanded Spectrum MIC (Table II), Staph. aureus; details: Staphylococcus aureus
Excerpt: as §1

E. coli = experiment: standard in vitro agar dilution MIC (Table I), E. coli; details: Escherichia coli
H. influ. [6] = experiment: Expanded Spectrum MIC (Table II), H. influ.
Excerpt: as §1

[7] = Klebsiella, Table I, agar dilution, strain X26, read-out: MIC

SMILES: COc1c([C@@H](N)C(=O)NC2C(=O)N3C(C(=O)O)=C(C)CSC23)sc2ccccc12 (stereo partly drawn) [Ex. 9A, D-7-(3-methoxy-2-benzothienylglycylamido)-3-methyl-3-cephem-4-carboxylic acid]
- MIC (Staph. epi [1]; strain 219, read-out: MIC): 0.25 µg/mL (≈ 0.577 µM)
- MIC (Staph. epi [1]; strain 269, read-out: MIC): 1 µg/mL (≈ 2.31 µM)
- MIC (Staph. epi [1]; strain 270, read-out: MIC): 1 µg/mL (≈ 2.31 µM)
- MIC (Staph. epi [1]; strain 285, read-out: MIC): 0.5 µg/mL (≈ 1.15 µM)
- MIC (Staph. epi [1]; strain 286, read-out: MIC): 0.25 µg/mL (≈ 0.577 µM)
- MIC (Staph. epi [1]; strain EPI1, read-out: MIC): 4 µg/mL (≈ 9.23 µM)
- MIC (Strep. D; strain 2041): 128 µg/mL (≈ 295 µM)
- MIC (Strep. D; strain X66): > 128 µg/mL
- MIC (H. influ. [2]; strain 76, read-out: MIC): 32 µg/mL (≈ 73.8 µM)
- MIC (H. influ. [2]; strain C.L., read-out: MIC): 64 µg/mL (≈ 148 µM)
- MIC (Strep. PN): 4 µg/mL (≈ 9.23 µM)
- MIC (Staph. epi [3]; strain 222): 8 µg/mL (≈ 18.5 µM)
- MIC (Staph. epi [3]; strain EPI1): 32 µg/mL (≈ 73.8 µM)
- MIC (Strep. A): 1 µg/mL (≈ 2.31 µM)
- MIC (Klebsiella; Klebsiella): > 128 µg/mL
- MIC (Klebsiella; [7]): 32 µg/mL (≈ 73.8 µM)
- MIC (Klebsiella; Table I, agar dilution, strain X68): > 128 µg/mL
- MIC (Staph. aureus [4]; strain S13E): 64 µg/mL (≈ 148 µM)
- MIC (Staph. aureus [4]; strain V41, read-out: MIC): 64 µg/mL (≈ 148 µM)
- MIC (Staph. aureus [4]; strain X1.1, read-out: MIC): 4 µg/mL (≈ 9.23 µM)
- MIC (Staph. aureus [4]; strain X400, read-out: MIC): > 128 µg/mL
- MIC (Staph. aureus [5]; strain 239, read-out: MIC): 0.5 µg/mL (≈ 1.15 µM)
- MIC (Staph. aureus [5]; strain S224, read-out: MIC): 0.25 µg/mL (≈ 0.577 µM)
- MIC (Staph. aureus [5]; strain S225, read-out: MIC): 0.25 µg/mL (≈ 0.577 µM)
- MIC (Staph. aureus [5]; strain S226, read-out: MIC): 0.5 µg/mL (≈ 1.15 µM)
- MIC (Staph. aureus [5]; strain S227, read-out: MIC): 0.25 µg/mL (≈ 0.577 µM)
- MIC (Staph. aureus [5]; strain S228, read-out: MIC): 0.25 µg/mL (≈ 0.577 µM)
- MIC (Staph. aureus [5]; strain S229, read-out: MIC): 0.5 µg/mL (≈ 1.15 µM)
- MIC (Staph. aureus [5]; strain S230, read-out: MIC): 0.25 µg/mL (≈ 0.577 µM)
- MIC (Staph. aureus [5]; strain S231, read-out: MIC): 0.25 µg/mL (≈ 0.577 µM)
- MIC (Staph. aureus [5]; strain S234, read-out: MIC): 0.5 µg/mL (≈ 1.15 µM)
- MIC (Staph. aureus [5]; strain S237, read-out: MIC): 0.5 µg/mL (≈ 1.15 µM)
- MIC (Staph. aureus [5]; strain S238, read-out: MIC): 1 µg/mL (≈ 2.31 µM)
- MIC (E. coli; strain EC14): 128 µg/mL (≈ 295 µM)
- MIC (E. coli; strain N10): > 128 µg/mL
- MIC (E. coli; strain TEM): > 128 µg/mL

SMILES: CC1=C(C(=O)O)N2C(=O)C(NC(=O)[C@H](N)c3cc4c(Cl)cccc4s3)C2SC1 (stereo partly drawn) [Ex. 7A, D-7-(4-chloro-2-benzothienylglycylamido)-3-methyl-3-cephem-4-carboxylic acid]
- MIC (Staph. epi [1]; strain 219, read-out: MIC): 0.5 µg/mL (≈ 1.14 µM)
- MIC (Staph. epi [1]; strain 269, read-out: MIC): 1 µg/mL (≈ 2.28 µM)
- MIC (Staph. epi [1]; strain 270, read-out: MIC): 2 µg/mL (≈ 4.57 µM)
- MIC (Staph. epi [1]; strain 285, read-out: MIC): 1 µg/mL (≈ 2.28 µM)
- MIC (Staph. epi [1]; strain 286, read-out: MIC): 0.25 µg/mL (≈ 0.571 µM)
- MIC (Staph. epi [1]; strain EPI1, read-out: MIC): 4 µg/mL (≈ 9.13 µM)
- MIC (Strep. D; strain 2041, read-out: MIC): 32 µg/mL (≈ 73.1 µM)
- MIC (Strep. D; strain X66, read-out: MIC): 32 µg/mL (≈ 73.1 µM)
- MIC (H. influ. [2]; strain 76, read-out: MIC): 4 µg/mL (≈ 9.13 µM)
- MIC (Strep. PN): 0.5 µg/mL (≈ 1.14 µM)
- MIC (Staph. epi [3]; strain 222): 1 µg/mL (≈ 2.28 µM)
- MIC (Staph. epi [3]; strain EPI1): 2 µg/mL (≈ 4.57 µM)
- MIC (Strep. A): 0.25 µg/mL (≈ 0.571 µM)
- MIC (Klebsiella; Klebsiella, Table I, agar dilution, strain KAE, read-out: MIC): > 128 µg/mL
- MIC (Klebsiella; [7]): 8 µg/mL (≈ 18.3 µM)
- MIC (Klebsiella; Klebsiella, Table I, agar dilution, strain X68, read-out: MIC): > 128 µg/mL
- MIC (Staph. aureus [4]; strain V41, read-out: MIC): 2 µg/mL (≈ 4.57 µM)
- MIC (Staph. aureus [4]; strain X1.1, read-out: MIC): 0.5 µg/mL (≈ 1.14 µM)
- MIC (Staph. aureus [4]; strain X400, read-out: MIC): 32 µg/mL (≈ 73.1 µM)
- MIC (Staph. aureus [5]; strain 239, read-out: MIC): 0.5 µg/mL (≈ 1.14 µM)
- MIC (Staph. aureus [5]; strain S224, read-out: MIC): 0.5 µg/mL (≈ 1.14 µM)
- MIC (Staph. aureus [5]; strain S225, read-out: MIC): 0.5 µg/mL (≈ 1.14 µM)
- MIC (Staph. aureus [5]; strain S226, read-out: MIC): 0.5 µg/mL (≈ 1.14 µM)
- MIC (Staph. aureus [5]; strain S227, read-out: MIC): 0.5 µg/mL (≈ 1.14 µM)
- MIC (Staph. aureus [5]; strain S228, read-out: MIC): 0.5 µg/mL (≈ 1.14 µM)
- MIC (Staph. aureus [5]; strain S229, read-out: MIC): 0.5 µg/mL (≈ 1.14 µM)
- MIC (Staph. aureus [5]; strain S230, read-out: MIC): 0.5 µg/mL (≈ 1.14 µM)
- MIC (Staph. aureus [5]; strain S231, read-out: MIC): 0.25 µg/mL (≈ 0.571 µM)
- MIC (Staph. aureus [5]; strain S234, read-out: MIC): 0.5 µg/mL (≈ 1.14 µM)
- MIC (Staph. aureus [5]; strain S237, read-out: MIC): 0.5 µg/mL (≈ 1.14 µM)
- MIC (Staph. aureus [5]; strain S238, read-out: MIC): 0.5 µg/mL (≈ 1.14 µM)
- MIC (E. coli; strain EC14): > 128 µg/mL
- MIC (E. coli; strain N10): > 128 µg/mL
- MIC (E. coli; strain TEM): > 128 µg/mL
- MIC (H. influ. [6]; strain 76, read-out: MIC): 16 µg/mL (≈ 36.5 µM)
- MIC (H. influ. [6]; strain 158, read-out: MIC): 8 µg/mL (≈ 18.3 µM)
- MIC (H. influ. [6]; strain 169, read-out: MIC): 8 µg/mL (≈ 18.3 µM)
- MIC (H. influ. [6]; strain 312, read-out: MIC): 16 µg/mL (≈ 36.5 µM)
- MIC (H. influ. [6]; strain 1683, read-out: MIC): 4 µg/mL (≈ 9.13 µM)
- MIC (H. influ. [6]; strain 1930, read-out: MIC): 16 µg/mL (≈ 36.5 µM)
- MIC (H. influ. [6]; strain 4842, read-out: MIC): 8 µg/mL (≈ 18.3 µM)
- MIC (H. influ. [6]; strain C.L., read-out: MIC): 32 µg/mL (≈ 73.1 µM)
- MIC (H. influ. [6]; strain HESS, read-out: MIC): 32 µg/mL (≈ 73.1 µM)
- MIC (H. influ. [6]; strain M366, read-out: MIC): 32 µg/mL (≈ 73.1 µM)
- MIC (H. influ. [6]; strain R465, read-out: MIC): 16 µg/mL (≈ 36.5 µM)
- MIC (H. influ. [6]; strain STEL, read-out: MIC): 32 µg/mL (≈ 73.1 µM)
